Reference: publication PMC12475007 (2025)

Assays:
Assay in all cases: fluorescence bead binding assay
Details in all cases: binding buffer, room temperature, 1 h; immobilised compound (on beads)
[1] = system: P1 (DNA, aptamer) TGCGGAGCGAGGCCCTAGGCGTGGTGGCATTGATTTGTAT
[2] = system: P2 (DNA, aptamer) AGACGTGATGAAGTTCAATCAGGATGCAATGTATTAATGG
[3] = system: P3 (DNA, aptamer) CCAAGCATCGTCACATCACATTATCACACATTGTCGTCCGT
[4] = system: P4 (DNA, aptamer) TGTGCATTCGTGTGAATTAACTCGTCCACCAGAGCCCGTG
[5] = system: P5 (DNA, aptamer) ACATGTGTAGGCGGTTGGATGCATTATGAGATGGGACATG
[6] = system: L1 (DNA, aptamer) CAGTCTGCGCCGATTTCTCGCGGATTGCGACGAGGATACG
[7] = system: L2 (DNA, aptamer) CCCATCACCACATTGTCACATCACTCGTCACATACAGCCCG
[8] = system: L3 (DNA, aptamer) CACACATACGGGAGAGGCCCCATAAACTCATGCACGTCCTG
[9] = system: L4 (DNA, aptamer) TAAGCCCGGCTGAGATAACGGTTGATCCGAAGCTGGTTTT

| SMILES | Kd [1] | Kd [2] | Kd [3] | Kd [4] | Kd [5] | Kd [6] | Kd [7] | Kd [8] | Kd [9] |
| --- | --- | --- | --- | --- | --- | --- | --- | --- | --- |
| CC(=O)O[C@H]1C(=O)[C@@]2(C)[C@H]([C@H](OC(=O)c3ccccc3)[C@]3(O)C[C@H](OC(=O)[C@H](O)[C@@H](NC(=O)c4ccccc4)c4ccccc4)C(C)=C1C3(C)C)[C@]1(OC(C)=O)CO[C@@H]1C[C@@H]2O | 0.1392 µM | 0.4842 µM | 0.03802 µM | 0.2081 µM | 0.05407 µM | – | – | – | – |
| Nc1nc(=O)c2c([nH]1)NC[C@@H](CNc1ccc(C(=O)N[C@@H](CCC(=O)O)C(=O)O)cc1)N2C=O | – | – | – | – | – | 0.1257 µM | 0.2842 µM | 0.2257 µM | 0.2857 µM |
